Reference: patent US7727980B2, “Tricyclic androgen receptor modulator compounds and methods” (priority 2001, dated 2010)
Where two headings read alike, the source gives them in different places.

What was measured:
[1] = target: T1, human AR (Homo sapiens, UniProt P10275); test: AR whole cell competitive binding assay (3H-DHT), transfected COS-1 cells; design: expressed in transfected cells; transient transfection with pRShAR
T1 sequence (P10275 1-920): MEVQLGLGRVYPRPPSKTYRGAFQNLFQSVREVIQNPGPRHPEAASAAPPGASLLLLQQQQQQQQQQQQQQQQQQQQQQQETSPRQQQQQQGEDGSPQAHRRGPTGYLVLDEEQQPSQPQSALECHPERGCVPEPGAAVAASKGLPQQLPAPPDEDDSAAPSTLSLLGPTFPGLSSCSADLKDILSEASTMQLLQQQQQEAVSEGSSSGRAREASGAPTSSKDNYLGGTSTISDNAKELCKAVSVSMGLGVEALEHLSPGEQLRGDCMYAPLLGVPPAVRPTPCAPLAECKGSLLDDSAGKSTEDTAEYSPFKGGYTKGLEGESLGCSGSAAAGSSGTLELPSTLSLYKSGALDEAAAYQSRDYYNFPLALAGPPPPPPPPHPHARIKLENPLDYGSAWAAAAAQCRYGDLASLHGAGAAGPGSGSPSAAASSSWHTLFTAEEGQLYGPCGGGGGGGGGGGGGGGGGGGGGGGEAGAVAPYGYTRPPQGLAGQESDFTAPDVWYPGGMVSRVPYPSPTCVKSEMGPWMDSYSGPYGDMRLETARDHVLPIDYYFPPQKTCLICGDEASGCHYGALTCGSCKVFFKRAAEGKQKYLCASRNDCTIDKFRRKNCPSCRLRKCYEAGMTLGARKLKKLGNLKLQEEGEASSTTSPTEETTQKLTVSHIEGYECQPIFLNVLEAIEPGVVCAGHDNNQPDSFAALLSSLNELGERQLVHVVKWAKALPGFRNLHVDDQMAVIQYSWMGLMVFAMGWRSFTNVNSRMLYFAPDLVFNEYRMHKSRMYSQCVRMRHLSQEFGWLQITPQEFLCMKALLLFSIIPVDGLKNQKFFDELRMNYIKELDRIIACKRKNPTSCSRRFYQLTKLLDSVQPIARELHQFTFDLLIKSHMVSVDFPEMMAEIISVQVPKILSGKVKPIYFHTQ
Experimental: AR Binding: For the whole cell binding assay, COS-1 cells in 96-well microtiter plates containing DMEM-10% FBS were transfected as described above with the following plasmid DNA: pRShAR (2 ng/well), pRS-β-Gal (50 ng/well) and pGEM (48 ng/well). Six hours after transfection, media was removed, the cells were washed with PBS and fresh media was added. The next day, the media was changed to DMEM-serum free to remove any endogenous ligand that might be complexed with the receptor in the cells.
Three replicates were used for each sample. […] The remaining media was removed, the cells were washed three times with PBS to remove unbound ligand and cells were lysed with a Triton X-100-based buffer.
For the saturation analyses, the difference between the total binding and the nonspecific binding, normalized by the β-Gal rate, was defined as specific binding. […] The Ki values were determined by application of the Cheng-Prusoff equation to the IC50 values, where: […]
After correcting for non-specific binding, IC50 values were determined. […] The IC50 value was determined graphically from a log-logit plot of the data. The Ki values were determined by application of the Cheng-Prusoff equation to the IC50 values, the labeled ligand concentration and the Kd of the labeled ligand.

[2] = target: T1, human AR; test: Co-transfection assay, AR agonist activity, CV-1 cells; format: cell-based; design: expressed in transfected cells; host or cells: CV-1 cells (African green monkey kidney fibroblasts), transient transfection with pRShAR; conditions: for EC50: AR Agonist CV-1 Cells Potency (nM), agonist potency or EC50; for AR Agonist CV-1 Cells Efficacy (%): percent maximal response relative to reference agonist DHT
Description: (§1) The co-transfection assay provides a method for identifying functional agonists and partial agonists which mimic, or antagonists which inhibit, the effect of native hormones and quantifying their activity for responsive IR proteins. In this regard, the co-transfection assay mimics an in vivo system in the laboratory. Importantly, activity in the co-transfection assay correlates very well with known in vivo activity, such that the co-transfection assay functions as a qualitative and quantitative predictor of a tested compounds in vivo pharmacology. See, e.g., T. Berger et al. 41 J. Steroid Biochem. Molec.
(§2) In the co-transfection assay, a cloned cDNA for an IR (e.g., human PR, AR or GR) under the control of a constitutive promoter (e.g., the SV 40 promoter) is introduced by transfection (a procedure to induce cells to take up foreign genes) into a background cell substantially devoid of endogenous IRs. This introduced gene directs the recipient cells to make the IR protein of interest. A second gene is also introduced (co-transfected) into the same cells in conjunction with the IR gene. This second gene, comprising the cDNA for a reporter protein, such as firefly luciferase (LUC), controlled by an appropriate hormone responsive promoter containing a hormone response element (HRE). This reporter plasmid functions as a reporter for the transcription-modulating activity of the target IR. Thus, the reporter acts as a surrogate for the products (mRNA then protein) normally expressed by a gene under control of the target receptor and its native hormone.
(§3) The co-transfection assay can detect small molecule agonists or antagonists of target IRs. Exposing the transfected cells to an agonist ligand compound increases reporter activity in the transfected cells. This activity can be conveniently measured, e.g., by increasing luciferase production, which reflects compound-dependent, IR-mediated increases in reporter transcription. […] To detect antagonists, the co-transfection assay is carried out in the presence of a constant concentration of an agonist to the target IR (e.g., progesterone for PR) known to induce a defined reporter signal. Increasing concentrations of a suspected antagonist will decrease the reporter signal (e.g., luciferase production). The co-transfection assay is therefore useful to detect both agonists and antagonists of specific IRs. Furthermore, it determines not only whether a compound interacts with a particular IR, but whether this interaction mimics (agonizes) or blocks (antagonizes) the effects of the native regulatory molecules on target gene expression, as well as the specificity and strength of this interaction.
(§4) CV-1 cells (African green monkey kidney fibroblasts) were cultured in the presence of Dulbecco's Modified Eagle Medium (DMEM) supplemented with 10% charcoal resin-stripped fetal bovine serum then transferred to 96-well microtiter plates one day prior to transfection.
(§5) The reporter plasmid, MTV-LUC, contains the cDNA for firefly luciferase (LUC) under control of the mouse mammary tumor virus (MTV) long terminal repeat, a conditional promoter containing an androgen response element. See e.g., Berger et al. supra. In addition, pRS-β-Gal, coding for constitutive expression of E. coli β-galactosidase (β-Gal), was included as an internal control for evaluation of transfection efficiency and compound toxicity.
(§6) Six hours after transfection, media was removed and the cells were washed with phosphate-buffered saline (PBS). […] Three to four replicates were used for each sample. Transfections and subsequent procedures were performed on a Biomek 1000 automated laboratory work station.
(§7) After 40 hours, the cells were washed with PBS, lysed with a Triton X-100-based buffer and assayed for LUC and β-Gal activities using a luminometer or spectrophotometer, respectively. For each replicate, the normalized response (NR) was calculated as: LUC response/β-Gal rate • where β-Gal rate=β-Gal·1×10^−5/β-Gal incubation time.

[3] = target: T1, human AR; test: Co-transfection assay, AR antagonist activity in presence of DHT, CV-1 cells; format: cell-based; design: expressed in transfected cells; host or cells: CV-1 cells (African green monkey kidney fibroblasts), transient transfection with pRShAR; conditions: for AR Antagonist CV-1 Cells Efficacy (%): percent maximal inhibition, DHT at its EC50 concentration
Description: as §1, §2, §3, §4, §5, §6, §7

[4] = AR Binding Ki (nM), COS-1 cells, 1 nM 3H-DHT, Cheng-Prusoff from IC50
[5] = AR Antagonist CV-1 Cells Potency (nM), CV-1 cells, antagonist potency or IC50, DHT at its EC50 concentration

## O=c1cc(C(F)(F)F)c2cc3c(cc2[nH]1)c1c(n3CC(F)(F)F)CCC1 [Compound 159, 6-(2,2,2-Trifluoroethyl)-4-trifluoromethyl-6,7,8,9-tetrahydrocyclopentano[i]pyrrolo[2,3-g]quinolin-2(1H)-one]
[1]; [4]
  Ki: 989 nM
[2]
  EC50: > 10000 nM
  AR Agonist CV-1 Cells Efficacy (%): na (na = not active (i.e. efficacy of <20 and potency of >10,000))
[3]; [5]
  IC50: 15 nM
[3]; CV-1 cells
  AR Antagonist CV-1 Cells Efficacy (%): 66%

## O=c1cc(C(F)(F)F)c2cc3c(cc2[nH]1)CCCN3CC(F)(F)F [Compound 198, 4-Trifluoromethyl-6-(2,2,2-trifluoroethyl)-6,7,8,9-tetrahydropyrido[2,3-g]quinolin-2(1H)-one]
[1]; [4]
  Ki: 58 nM
[2]
  EC50: 1.7 nM
  AR Agonist CV-1 Cells Efficacy (%): 47%
[3]; [5]
  IC50: > 10000 nM
[3]; CV-1 cells
  AR Antagonist CV-1 Cells Efficacy (%): na (na = not active (i.e. efficacy of <20 and potency of >10,000))

## O=c1cc(C(F)(F)F)c2cc3c(cc2[nH]1)C1CCCC1N3CC(F)(F)F (racemic) [Compound 120, (±)-6,6a,7,8,9,9a(cis)-Hexahydro-6-(2,2,2-trifluoroethyl)-4-trifluoromethylcyclopentano-[i]pyrrolo[2,3-g]quinolin-2(1H)-one]
[1]; [4]
  Ki: 12 nM
[2]
  EC50: 4.5 nM
  AR Agonist CV-1 Cells Efficacy (%): 117%
[3]; [5]
  IC50: > 10000 nM
[3]; CV-1 cells
  AR Antagonist CV-1 Cells Efficacy (%): na (na = not active (i.e. efficacy of <20 and potency of >10,000))

## CCN1c2cc3c(C(F)(F)F)cc(=O)[nH]c3cc2C2CCCC21 (racemic) [Compound 122, (±)-6,6a 7,8,9,9a(cis)-Hexahydro-6-ethyl-4-trifluoromethylcyclopentano-[i]pyrrolo[2,3-g]quinolin-2(1H)-one]
[1]; [4]
  Ki: 21 nM
[2]
  EC50: 34 nM
  AR Agonist CV-1 Cells Efficacy (%): 59%
[3]; [5]
  IC50: > 10000 nM
[3]; CV-1 cells
  AR Antagonist CV-1 Cells Efficacy (%): na (na = not active (i.e. efficacy of <20 and potency of >10,000))

## CC1C(c2ccc(N(C)C)cc2)c2c(ccc3[nH]c(=O)cc(C(F)(F)F)c23)N1CC(F)(F)F (racemic) [Compound 137, (±)-5,6-cis-Dihydro-5-(4-dimethylaminophenyl)-6-methyl-7-(2,2,2-trifluoroethyl)-4-trifluoromethyl-7H-pyrrolo[3,2-f]quinolin-2(1H)-one]
[1]; read-out: AR Binding Ki
  Ki: 107 nM
[2]
  EC50: 145 nM
  AR Agonist CV-1 Cells Efficacy (%): 77%
[3]
  IC50: > 10000 nM
[3]; CV-1 cells
  AR Antagonist CV-1 Cells Efficacy (%): na (na = not active (i.e. efficacy of <20 and potency of >10,000))

## O=c1cc(C(F)(F)F)c2c3c(ccc2[nH]1)N(CC(F)(F)F)C1CCCC31 (single isomer, unassigned; (-)) [Compound 179, (−)-4c,5,6,7,7a(cis),8-Hexahydro-8-(2,2,2-trifluoroethyl)-4-trifluoromethylcyclopentano-[g]pyrrolo[3,2-f]quinolin-2(1H)-one]
[1]; [4]
  Ki: 4.1 nM
[2]
  EC50: 1.3 nM
  AR Agonist CV-1 Cells Efficacy (%): 91%
[3]; [5]
  IC50: > 10000 nM
[3]; CV-1 cells
  AR Antagonist CV-1 Cells Efficacy (%): na (na = not active (i.e. efficacy of <20 and potency of >10,000))

## O=c1cc(C(F)(F)F)c2cc3c(cc2[nH]1)CCCN3CC1CC1 [Compound 201, 4-Trifluoromethyl-6-cyclopropylmethyl-6,7,8,9-tetrahydropyrido[2,3-g]quinolin-2(1H)-one]
[1]; [4]
  Ki: 10 nM
[2]
  AR Agonist CV-1 Cells Efficacy (%): 76%
[3]; [5]
  IC50: > 10000 nM
[3]; CV-1 cells
  AR Antagonist CV-1 Cells Efficacy (%): na (na = not active (i.e. efficacy of <20 and potency of >10,000))

## CCC1CCOc2cc3c(cc21)c(C(F)(F)F)c(F)c(=O)n3C (racemic) [Compound 221, (±)-6,7-Dihydro-6-ethyl-3-fluoro-4-trifluoromethyl-1-methyl-8H-pyrano[3,2-g]quinolin-2(1H)-one]
[1]; [4]
  Ki: 29 nM
[2]
  EC50: > 10000 nM
  AR Agonist CV-1 Cells Efficacy (%): na (na = not active (i.e. efficacy of <20 and potency of >10,000))
[3]; [5]
  IC50: 311 nM
[3]; CV-1 cells
  AR Antagonist CV-1 Cells Efficacy (%): 78%

## CCN1c2ccc3[nH]c(=O)cc(C(F)(F)F)c3c2C2CCCC21 (racemic) [Compound 121, (±)-4c,5,6,7,7a(cis),8-Hexahydro-8-ethyl-4-trifluoromethylcyclopentano-[g]pyrrolo[3,2-f]quinolin-2(1H)-one]
[1]; [4]
  Ki: 7.6 nM
[2]
  EC50: 43 nM
  AR Agonist CV-1 Cells Efficacy (%): 97%
[3]; [5]
  IC50: > 10000 nM
[3]; CV-1 cells
  AR Antagonist CV-1 Cells Efficacy (%): na (na = not active (i.e. efficacy of <20 and potency of >10,000))

## CC1CCc2cc3[nH]c(=O)cc(C(F)(F)F)c3cc2N1CC(F)(F)F (stereo not shown) [Compound 197, 4-Trifluoromethyl-7-methyl-6-(2,2,2-trifluoroethyl)-6,7,8,9-tetrahydropyrido[2,3-g]quinolin-2(1H)-one]
[1]; [4]
  Ki: 79 nM
[2]
  EC50: 12 nM
  AR Agonist CV-1 Cells Efficacy (%): 66%
[3]; [5]
  IC50: > 10000 nM
[3]; CV-1 cells
  AR Antagonist CV-1 Cells Efficacy (%): na (na = not active (i.e. efficacy of <20 and potency of >10,000))
